Target: T1, recombinant HTRA2 protein (Homo sapiens, UniProt O43464)
T1 construct: 6xHis (C); purchased Novoprotein Scientific INC., Summit, NJ, USA
T1 sequence (O43464 134-458): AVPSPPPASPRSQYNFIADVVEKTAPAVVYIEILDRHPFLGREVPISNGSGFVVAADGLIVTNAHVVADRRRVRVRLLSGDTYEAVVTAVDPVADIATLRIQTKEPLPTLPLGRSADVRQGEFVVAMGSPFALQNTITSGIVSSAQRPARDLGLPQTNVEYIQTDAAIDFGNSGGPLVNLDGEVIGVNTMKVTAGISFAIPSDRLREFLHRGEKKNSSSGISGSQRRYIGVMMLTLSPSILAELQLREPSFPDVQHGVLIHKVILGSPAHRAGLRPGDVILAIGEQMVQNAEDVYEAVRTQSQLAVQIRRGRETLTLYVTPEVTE
Test: HTRA2 protease activity assay with fluorescent H2-optimal substrate
Format: biochemical
Conditions: for Average degradation rate of the optimal substrate H2 by HTRA2 (enzymatic reaction rate per minute): pH 8.0, RT, untreated positive control 229 U/min
Method: The HTRA2 protease activity assay was performed as described by Martins et al. (2003), but with some slight modifications. The experiment was performed with 100 nM recombinant HTRA2 protein (Novoprotein Scientific INC., Summit, NJ, USA) in a protease assay buffer (50 mM tris(hydroxymethyl)-aminomethane (TRIS), 0.5 mM ethylenediaminetetraacetic acid (EDTA), and 1 mM dithiothreitol (DTT), pH 8.0) containing 10 µM H2-optimal substrate (Innovagen AB, Lund, Sweden). The H2-optimal substrate is commonly used to measure the protease activity of HTRA2 and consists of a structural quencher and a fluorophore unit. The cleavage of the substrate leads to the disruption of the quencher/fluorophore complex and the degradation rate can be measured by fluorescence. The different sample groups were treated with 50 µM PDZ-Opt, 50 µM PDZ-Sub, 50 µM synthetic CDR1 peptide, or 30 µM UCF-101, respectively. The drug compound UCF-101 is an inhibitor of the catalytic domain of HTRA2 and was purchased from Sigma Aldrich (Darmstadt, Germany). The concentrations of the peptide ligands for the HTRA2 protease activity assay were chosen from the previous publication. The concentration of UCF-101 was determined to be optimal from the preliminary experiments. In addition, a positive control containing only 100 nM recombinant HTRA2 and a negative control (only protease assay buffer) were included in this experiment. All of the sample groups were incubated for 1 h at 37 °C to determine the maximum degradation rate of HTRA2. For the analysis of the enzymatic reaction rate of HTRA2, all samples were measured subsequently after the addition of the 10 µM H2-optimal substrate at RT. Fluorescence was monitored on a Spark® 10 M multimode microplate-reader (Tecan Trading AG, Männedorf, Switzerland) with an excitation at 320 nm and a fluorescence emission at 405 nm. The fluorescence background of the substrate was substracted from the fluorescence intensities of the different the sample groups to normalize the data.
To determine the proteolytic activity of HTRA2 we used the fluorescent H2 optimal substrate developed by Martins et al. (2003). The optimal substrate H2 encoded a short specific amino acid sequence, which is preferentially cleaved by HTRA2, and was also modified with a fluorescent dye and quencher. […] Under physiological conditions, the proteolytic activity of HTRA2 is suppressed by the C-terminal PDZ domain, which blocks the access of potential substrates to the catalytic domain by steric hindrance. The binding of short hydrophobic polypeptides to the allosteric PDZ domain can induce specific conformational changes of HTRA2 and are able to regulate its proteolytic activity. Therefore, Martins et al. (2003) specifically designed the peptide ligands PDZ-Opt (GQYYFV) and PDZ-Sub (GGIRRV), which are known to increase the proteolytic activity of HTRA2 in this assay.

Row | Decrease of the average degradation rate of the optimal substrate H2 compared with the untreated positive control (50 µM peptide, 100 nM HTRA2, 10 µM substrate, RT) | Average degradation rate of the optimal substrate H2 by HTRA2 (enzymatic reaction rate per minute) (50 µM peptide, 100 nM recombinant HTRA2, 10 µM H2-optimal substrate, fluorescence ex 320 nm / em 405 nm) | Maximum degradation rate of the H2 optimal substrate by HTRA2 (50 µM peptide, 1 h at 37 °C, n = 3, Figure 1C) | Inhibition of the proteolytic activity of HTRA2 (specific protease function assay, p < 0.01 (abstract)) | Molecule | Average degradation rate of the optimal substrate H2 by HTRA2 (enzymatic reaction rate per minute) (30 µM UCF-101, 100 nM recombinant HTRA2, 10 µM H2-optimal substrate)
1 | around 45% | 127 U/min | significantly decreased | up to 50% | ASGYTFTNYGLSWVR [CDR, synthetic peptide encoding a complementary-determining region 1 (CDR1) of polyclonal antibody molecules] | 
2 |  |  |  |  | O=C1C(=Cc2ccc(-c3ccccc3[N+](=O)[O-])o2)C(=O)N(c2ccccc2)C(=S)N1c1ccccc1 [UCF-101, reference compound] | 0 U/min
